Molecules are shown by their SMILES. Where only a bound is given, the exact number is not on record here.

Our source for the IC50 and Clhep values is patent US20260085067A1, “CYCLIC SULFONAMIDE RIBONUCLEOTIDE REDUCTASE (RNR) INHIBITORS AND USES THEREOF” (Boundless Bio, Inc., priority 2022, published 2026).

One data set deals with T1, RNR (RNR1:RNR2 1:1) (Homo sapiens, UniProt P23921).
T1 sequence (P23921 1-792): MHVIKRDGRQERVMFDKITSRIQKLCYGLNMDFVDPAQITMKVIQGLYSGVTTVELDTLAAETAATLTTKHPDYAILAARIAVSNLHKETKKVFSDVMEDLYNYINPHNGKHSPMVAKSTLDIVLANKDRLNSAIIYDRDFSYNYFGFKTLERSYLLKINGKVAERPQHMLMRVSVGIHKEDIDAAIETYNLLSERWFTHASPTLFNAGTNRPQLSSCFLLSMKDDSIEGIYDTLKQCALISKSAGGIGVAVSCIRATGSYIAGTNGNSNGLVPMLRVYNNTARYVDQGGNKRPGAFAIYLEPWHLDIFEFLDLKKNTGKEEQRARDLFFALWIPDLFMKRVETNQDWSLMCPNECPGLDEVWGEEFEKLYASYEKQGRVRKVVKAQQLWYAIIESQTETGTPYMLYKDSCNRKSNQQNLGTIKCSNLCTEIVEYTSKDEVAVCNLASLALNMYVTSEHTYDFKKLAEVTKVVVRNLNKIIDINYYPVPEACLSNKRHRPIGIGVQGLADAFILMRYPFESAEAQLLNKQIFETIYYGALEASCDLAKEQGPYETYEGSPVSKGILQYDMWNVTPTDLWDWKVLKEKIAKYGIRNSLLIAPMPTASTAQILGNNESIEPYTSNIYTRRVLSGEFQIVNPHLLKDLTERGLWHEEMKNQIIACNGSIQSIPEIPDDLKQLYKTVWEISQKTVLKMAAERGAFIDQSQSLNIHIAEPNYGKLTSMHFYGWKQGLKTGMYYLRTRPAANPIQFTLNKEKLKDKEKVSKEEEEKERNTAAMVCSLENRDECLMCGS
Nature of the data set: RNR enzyme activity, rapid-fire mass spectrometry (RF/MS) assay. The format is biochemical. The settings on record: [RNR] 50 nM, 1:1 RNR1:RNR2; CDP 5 μM; ATP 1 mM; 37° C., 45 min; compounds screened up to 50 μM. In a few lines: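 Human RNR (50 nM final, RNR1:RNR2 1:1) pre-incubated 15 min at room temperature, then reacted 45 min at 37 °C with 5 μM CDP and 1 mM ATP, no NADPH. Reaction quenched with 6% HCOOH; product quantified by rapid-fire mass spectrometry.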

Data set [1] relates to pCHK1 (S345) in Colo320 DM cells. Nature of the data set: Alphalisa assay, detection of pCHK1 (S345) in Colo320 DM cells. The settings on record: Homo sapiens, COLO 320DM, compound overnight (approximately 16 hours). The format is cell-based, human. The gist of the method:
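Phospho-CHK1 (S345) read by AlphaLisa SureFire in lysates of human colorectal Colo320 DM cells. Compound treatment ran overnight (~16 h, 37 °C, DMSO <0.5%) on cells seeded the day before.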
In general terms: Bead proximity is the source of the signal in Alpha formats.

For the next data set, the system named is human hepatocytes. Briefly: Human hepatocyte stability assay. Type of data set: in vitro ADME. To be noted: 0.5×10^6 viable cells/ml, time points 0.5 and 60 minutes. How it is done:
1. 10 mM stock solutions of test compounds and positive control were prepared in DMSO. Thawing medium and supplement incubation medium (serum-free) were placed in a 37° C. water bath for at least 15 minutes prior to use.
2. Stock solutions were diluted to 100 μM by combining 198 μL acetonitrile and 2 μL of 10 mM stock solution. Verapamil was use as positive control in the assay.
3. Vials of cryopreserved human hepatocytes were removed from storage, while ensuring that vials remain at cryogenic temperatures. The pressure was removed by loosening and re-tightening the cap. The vials were thawed in a 37° C. water bath with gentle shaking. Vials remained in the water bath until all ice crystals had dissolved and were no longer visible. Vials were sprayed with 70% ethanol before being transferred to a biosafety cabinet. Then the contents were poured into a 50 mL thawing medium conical tube. Vials were centrifuged at 100 g for 10 minutes at room temperature. Thawing medium was aspirated and hepatocytes were re-suspended with serum-free incubation medium to yield ˜1.5×10^6 cells/mL.
4. Cell viability and density were counted using Cellometer® Vision, and then cells were diluted with serum-free incubation medium to a working cell density of 0.5×10^6 viable cells/ml.
5. Aliquots of 198 μL hepatocytes were dispensed into each well of a 96-well non-coated plate. The plate was placed in the incubator on an orbital shaker at 500 rpm for approximately 10 minutes.
6. Aliquots of 2 μL of the 100 μM test compounds or verapamil were added into respective wells of the non-coated 96-well plate to start the reaction. This assay was performed in duplicate. The plate was incubated in the incubator on an orbital shaker at 500 rpm for the designed time points.
7.25 μL of contents were transferred and mixed with 5 volumes (125 μL) of cold acetonitrile with IS (100 nM alprazolam, 200 nM caffeine, 100 nM labetalol and 100 nM tolbutamide) to terminate the reaction at time points of 0.5 and 60 minutes. Samples were centrifuged for 30 minutes at 3,220 g. Then transfer 100 μL of the supernatant to new 96-well plates for analysis. Add 100 μL of distilled water to each sample and mix for analysis by LC-MS/MS.
All calculations were carried out using Microsoft Excel. Peak areas were determined from extracted ion chromatograms. The in vitro half-life (tin) of the parent compound was determined by regression analysis of the percent parent disappearance vs. time curve. • a. The in vitro half-life (in vitro tin) was determined from the slope value: in vitro t1/2=0.693/k • b. Conversion of the in vitro tin (in min) into the in vitro intrinsic clearance (in vitro CLint, in μL/min/10^6 cells) was done using the following equation: […]

As to `COCCCN1CN([C@H](c2n[nH]c(=O)o2)[C@H](C)c2c(F)ccc(C)c2C)S(=O)(=O)c2ccc(Cl)nc21` [Example 48, 5-((1S,2R)-1-(6-chloro-4-(3-methoxypropyl)-1,1-dioxido-3,4-dihydro-2H-pyrido[2,3-e][1,2,4]thiadiazin-2-yl)-2-(6-fluoro-2,3-dimethylphenyl)propyl)-1,3,4-oxadiazol-2 (3H)-one], the 50% inhibitory concentration (IC50) – broadly, the concentration at which inhibition is half-maximal – was below 20 nM at RNR (RNR1:RNR2 1:1) and at most 1000 nM in data set [1]. The Clhep entry in the data set on human hepatocytes is on record as “A (0 ml/min/kg ≤ Clhep ≤ 10 ml/min/kg)”.

For the compound `Cc1ccc(F)c([C@@H](C)[C@@H](c2n[nH]c(=O)o2)N2CN(CCO)c3cc(Cl)ccc3S2(=O)=O)c1C` [Example 50, 5-((1S,2R)-1-(6-chloro-4-(2-hydroxyethyl)-1,1-dioxido-3,4-dihydro-2H-benzo[e][1,2,4]thiadiazin-2-yl)-2-(6-fluoro-2,3-dimethylphenyl)propyl)-1,3,4-oxadiazol-2 (3H)-one], the concentration for half-maximal inhibition (IC50) is below 20 nM against RNR (RNR1:RNR2 1:1) and at most 1000 nM in data set [1]. Moreover, the Clhep entry with human hepatocytes is “A (0 ml/min/kg ≤ Clhep ≤ 10 ml/min/kg)”.

For the compound `CC(=O)c1cc(Cl)cc2c1S(=O)(=O)N([C@H](c1n[nH]c(=O)o1)[C@H](C)c1c(F)ccc(C)c1C)CCO2` [Example 60, 5-((1S,2R)-1-(9-acetyl-7-chloro-1,1-dioxido-3,4-dihydro-2H-benzo[b][1,4,5]oxathiazepin-2-yl)-2-(6-fluoro-2,3-dimethylphenyl)propyl)-1,3,4-oxadiazol-2 (3H)-one], the results for the half-maximal inhibitory concentration (IC50) (against RNR (RNR1:RNR2 1:1); in data set [1]) were below 20 nM and at most 1000 nM, respectively. Besides, the Clhep entry in the data set with human hepatocytes was “B (10 ml/min/kg < Clhep ≤ 20 ml/min/kg)”.

As for `CC(=O)c1cc(Cl)cc2c1S(=O)(=O)N([C@H](c1n[nH]c(=O)o1)[C@H](C)c1c(F)ccc(C)c1C)CN2C` [Example 75, 5-((1S,2R)-1-(8-acetyl-6-chloro-4-methyl-1,1-dioxido-3,4-dihydro-2H-benzo[e][1,2,4]thiadiazin-2-yl)-2-(6-fluoro-2,3-dimethylphenyl)propyl)-1,3,4-oxadiazol-2 (3H)-one], the half-maximal inhibitory concentration (IC50) is below 20 nM on RNR (RNR1:RNR2 1:1) and at most 1000 nM in data set [1]. Further, in the data set with human hepatocytes, the Clhep result is listed as “B (10 ml/min/kg < Clhep ≤ 20 ml/min/kg)”.
